Results as given in the OPERA property sets (Mansouri et al. 2018).
Peptide text beside a SMILES is read from it.

| SMILES | logP |
| --- | --- |
| O=[N+]([O-])c1cc2ccccc2nn1 | 0.73 |
| C[N+](C)(C)c1ccccc1.[I-] | -2.74 |
| CCc1ccc2ccccc2c1 | 4.38 |
| C=CCC1(C(C)C)C(=O)NC(=O)NC1=O | 1.15 |
| CCN(CC)C(=O)C1C2CC3C(OC(=O)C31)C2O (stereo not drawn) | 0.15 |
| c1ccc(-c2cnc(-c3ccccc3)o2)cc1 | 4.67 |
| c1ccc2c(c1)sc1ccccc12 | 4.38 |
| O=C1CN=C(c2ccccc2F)c2ccccc2N1 | 2.38 |
| CCNNC(=O)COc1ccccc1 | 1 |
| O=C(O)COc1ccccc1O | 0.85 |
| COc1cccc(OC(=O)N(C)C)c1 | 1.6 |
| CN(C)C(=O)Nc1cccc(CCc2ccccc2)c1 | 3.21 |
| Nc1ncnc2c1ncn2C1CC(O)C(CO)O1 (stereo not drawn) | -0.55 |
| Cc1c(NC(=O)C(C)N(C)C)c(=O)n(-c2ccccc2)n1C (stereo not drawn) | -0.05 |
| CC(=O)N[C@@H](CCC(N)=O)C(=O)N[C@@H](Cc1ccccc1)C(N)=O (Ac-Gln-Phe-NH2) | -1.14 |
| CN(C)c1ccc2c(c1)C(=O)N(S(C)(=O)=O)C2=O | 1.65 |
| O=CNc1ccc([N+](=O)[O-])cc1 | 1.43 |
| O=C(Cn1cnc([N+](=O)[O-])n1)NCCO | -1.59 |
| CC(CO)NCc1ccccc1 (stereo not drawn) | 1.28 |
| CC1=NS(=O)(=O)c2ccccc2N1 | 0.29 |
| CC1(c2ccccc2)NC(=O)NC1=O (stereo not drawn) | 1.02 |
| CCN1CCN(C(=O)NC(C(=O)NC2C(=O)N3C(C(=O)O)=C(CSc4nnnn4C)CSC23)c2ccc(O)cc2)C(=O)C1=O (stereo not drawn) | -0.74 |
| O=[N+]([O-])c1cccc(C(F)(F)F)c1 | 2.62 |
| O=C1C2(Cl)C3(Cl)C4(Cl)C(Cl)(Cl)C5(Cl)C3(Cl)C1(Cl)C5(Cl)C24Cl (stereo not drawn) | 5.41 |

| SMILES | logP |
| --- | --- |
| CCOC(=O)C(=Cc1cccc([N+](=O)[O-])c1)C(=O)OCC | 2.71 |
| Cc1ccc(OC(=O)N(C)C)cc1 | 2.03 |
| CCCCn1cc(C)c(=O)[nH]c1=O | 0.91 |
| C=C1C(=O)OC2CC(C)C3CC(=O)C(CC12)C1(C3)C(=O)OC2CC(C)C3C=CC(=O)C3C(C)(O)C21 (stereo not drawn) | 1.66 |
| CCCCC1(CC)C(=O)NC(=O)NC1=O | 1.73 |
| CCCCC[N+](=O)[O-] | 2.01 |
| Cc1cc(C)[nH]n1 | 1.01 |
| Cc1[nH]c(=O)n(C(C)(C)C)c(=O)c1Cl | 1.89 |
| ClCc1ccccc1 | 2.3 |
| Nc1ccccc1I | 2.32 |
| Nc1nc(N)nc(-c2ccccc2[N+](=O)[O-])n1 | 0.49 |
| FC(F)(F)c1ccc2cccnc2c1 | 3.02 |
| O=[N+]([O-])c1ccc2ncccc2c1 | 1.84 |
| O=S(c1ccccc1)c1ccccc1 | 2.06 |
| CCN(C)N=Nc1ccc(C(N)=O)cc1 | 1.69 |
| c1ccc(OCCOc2ccccc2)cc1 | 3.81 |
| CNC(=S)NCCSCc1c[nH]cn1 | 0.16 |
| Nc1nnc(Cc2ccccc2)o1 | 0.95 |
| CNCc1cccnc1 | 0.39 |
| CN(O)C(N)=O | -0.46 |
| CN(C)N=Nc1ccccc1 | 2.59 |
| CC(C)(C)NC[C@H](O)COc1nsnc1N1CCOCC1 | 1.83 |
| CCC(=O)OC1(C(=O)CBr)C(C)CC2C3CCC4=CC(=O)C=CC4(C)C3(F)C(=O)CC21C (stereo not drawn) | 3.55 |
| CC(=O)Nc1cccc(NC(C)=O)c1 | 0.5 |

| SMILES | logP |
| --- | --- |
| O=C1OC(=O)c2ccccc21 | 1.6 |
| c1cnc2[nH]ccc2c1 | 1.82 |
| CCOc1ccc(OC(=O)NC)cc1 | 1.63 |
| O=CNc1cccc2cccnc12 | 1.8 |
| C=O | 0.35 |
| NCCc1ccccn1 | 0.08 |
| CCCNCCC | 1.67 |
| CCC(=O)C1(c2cccc(OC(=O)CC(C)(C)C)c2)CCN(C)CC1 | 3.17 |
| Cc1ccc2ccccc2c1 | 3.86 |
| C=C(C=O)CC | 1.24 |
| O=C[C@H](O)[C@@H](O)[C@H](O)[C@H](O)C(=O)O | -2.57 |
| CC(C)Br | 2.14 |
| CCC(C)c1cccc(C(C)C)c1O (stereo not drawn) | 3.85 |
| C1CO1 | -0.3 |
| CC1(C)SC2C(NC(=O)C(C(=O)Oc3ccccc3)c3ccccc3)C(=O)N2C1C(=O)O (stereo not drawn) | 3.14 |
| Cc1cccc(OC(=O)CNC(=O)c2ccccc2)c1 | 2.72 |
| C=C1C(=O)OC2CC(C)C3C=CC(=O)C3(C)CC12 (stereo not drawn) | 1.17 |
| ClC1C=CC(Cl)C(Cl)C1Cl (stereo not drawn) | 3.08 |
| OCC=Cc1ccccc1 | 1.95 |
| Clc1cc(-c2ccccc2)c(Cl)c(Cl)c1Cl | 6.41 |
| COc1ccc2cc(C(C)C(=O)OCC(=O)N(C)CCO)ccc2c1 (stereo not drawn) | 2.01 |
| CCC(=O)CC | 0.99 |
| COc1ccc2c(c1)N(CCCN(C)C)c1ccccc1S2 | 4.9 |
| CCCN(CCC)C1CCOc2ccc(O)cc21 (stereo not drawn) | 3.17 |

| SMILES | logP |
| --- | --- |
| c1ccc(Nc2ccccc2)cc1 | 3.5 |
| CNC(=O)ON=CC(C)(C)SC | 1.13 |
| O=C(NC(CO)C(O)c1ccc(-c2ccccc2)cc1)C(Cl)Cl (stereo not drawn) | 2.86 |
| CC(=O)N(C)Nc1ccccc1 | 1.31 |
| NC(=O)c1ccc(Cl)cc1 | 1.55 |
| COc1ccc(NC(=O)N(C)C)cc1Cl | 1.64 |
| COc1ccc(N=NN(C)C)cc1 | 2.99 |
| CCOC(=O)CCc1ccccc1 | 2.73 |
| C[Si](C)(C)c1ccccc1 | 4.72 |
| C1OCOCO1 | -0.43 |
| CCOC(=O)/C(=C\c1ccccc1Cl)C(C)=O | 2.84 |
| CN(C)N=Nc1ccccc1C(N)=O | 1.73 |
| COc1ccccc1NCC(C)=O | 1.49 |
| Cc1c[nH]c2ccccc12 | 2.6 |
| CC(=O)c1ccsc1 | 1.24 |
| O=NN1CCC(Cl)C(Cl)C1 (stereo not drawn) | 1.04 |
| CN(C)C(N(C)C)=S(I)c1cccc(I)c1 (stereo not drawn) | 0.29 |
| CCCl | 1.43 |
| Cc1cnc(C)cn1 | 0.63 |
| O=CC(Cl)(Cl)Cl | 0.99 |
| O=Cc1ccsc1 | 1.01 |
| Nc1ccc(C2CCCCC2)cc1 | 3.65 |
| CC(C)=NOCCOC(=O)[C@@H](C)Oc1ccc(Oc2cnc3cc(Cl)ccc3n2)cc1 | 4.6 |
| COP(=S)(OC)Oc1cc(Cl)c(Br)cc1Cl | 5.21 |

| SMILES | logP |
| --- | --- |
| c1cncc([C@@H]2CCCN2)c1 | 0.17 |
| NS(=O)(=O)c1cccc(Cl)c1 | 1.29 |
| CN[C@H]1CCc2cc(OC)c(OC)c(OC)c2-c2ccc(OC)c(=O)cc21 | 1.37 |
| CCOC(=O)c1c[nH]cc1C | 2.14 |
| CCOC(=O)C(=Cc1ccc(OC)cc1OC)C(C)=O | 2.41 |
| CCCC(=O)NN | -0.62 |
| CCCCN(CCCC)CC(O)c1ccccc1 (stereo not drawn) | 3.16 |
| COC(=O)c1ccccc1OC(C)=O | 1.46 |
| CC(C)C(N)C(=O)O (stereo not drawn) | -2.26 |
| Clc1cc(Cl)c(Cl)cc1Cl | 4.64 |
| CCC(Br)(CC)C(=O)NC(N)=O | 1.54 |
| C1CCNC1 | 0.46 |
| Cc1c(I)c(=O)n(-c2ccccc2)n1C | 1.27 |
| CCCc1ncc([N+](=O)[O-])n1CCNC(=S)OC | 1.94 |
| O=C(COc1ccccc1)Nc1ccccc1 | 2.73 |
| CC(=O)Nc1ccc(OC(C)=O)cc1 | 1.05 |
| Cc1ccc(Cl)cc1 | 3.33 |
| O=C(O)Cc1ccccc1Nc1ccc(Cl)c(Cl)c1 | 4.9 |
| CCCN(CCC)C(=O)SCC | 3.21 |
| Cc1cc(N)nc(C)n1 | 0.39 |
| CC(=O)Oc1ccccc1[N+](=O)[O-] | 1.55 |
| CS(=O)CC(=O)C=NO (stereo not drawn) | -0.72 |
| [N-]=[N+]=NC1CC(n2cnc3c(=O)[nH]c(N)nc32)OC1CO (stereo not drawn) | -0.33 |
| CCCCCCOC(=O)C(CC)C(CO)Cc1cncn1C (stereo not drawn) | 2.71 |

| SMILES | logP |
| --- | --- |
| CCOC(=O)C(=Cc1ccc(F)cc1)C(=O)OCC | 3.1 |
| O=C(Nc1ccccc1)Oc1ccccc1 | 3.3 |
| N#Cc1cccc2[nH]ccc12 | 2.46 |
| C[C@@H]1C[C@H]2[C@@H]3CCC4=CC(=O)C=C[C@]4(C)[C@@]3(F)[C@@H](O)C[C@]2(C)[C@H]1C(=O)CO | 2.35 |
| O=C(Nc1ncnc2c1ncn2[C@H]1C[C@H](O)[C@@H](CO)O1)c1ccccc1 | 0.22 |
| COCCN(CCOC)N=O | -0.38 |
| O=[N+]([O-])c1cccc(-c2ccccc2)c1 | 3.87 |
| Cc1cc(C(=O)NNCc2ccccc2)no1 | 1.49 |
| CC1(C)O[C@@H]2C[C@H]3[C@@H]4C[C@H](F)C5=CC(=O)C=C[C@]5(C)[C@@]4(F)[C@@H](O)C[C@]3(C)[C@]2(C(=O)CO)O1 | 2.48 |
| Cc1[nH]cnc1CSCCNc1nc(=O)cc[nH]1 | 0.02 |
| C#CCCC(C)=O | 0.58 |
| CCCOc1ccc([N+](=O)[O-])c(S(C)(=O)=O)c1 | 1.1 |
| Cc1ccc(/N=C/N(C)/C=N/c2ccc(C)cc2C)c(C)c1 | 5.5 |
| CCCCCCCCO | 3 |
| O=C(CCl)Nc1ccccc1 | 1.63 |
| CC(=O)c1ccc(OCC(=O)O)cc1 | 0.87 |
| CC(=O)OCCn1c([N+](=O)[O-])cnc1C | 0.3 |
| CC(=O)Nc1cc(C(=O)NN)ccn1 | -1.25 |
| OCCCOc1cccc(CN2CCCCC2)c1 | 2.78 |
| CCCCNC(=O)NS(=O)(=O)c1ccc(Cl)cc1 | 2.81 |
| O=C(O)c1cccc(O)c1O | 1.2 |
| CN(C)c1ccc([N+](=O)[O-])cc1 | 2.27 |
| c1ccc2cnncc2c1 | 0.57 |
| ClC(Cl)C(Cl)Cl | 2.39 |

| SMILES | logP |
| --- | --- |
| CNc1ncnc2c1ncn2C1CC(O)C(CO)O1 (stereo not drawn) | -0.19 |
| CCCCC(C)=O | 1.38 |
| S=C=Nc1ccccc1 | 3.28 |
| CCN(CC)CCOC(=O)C=Cc1ccc(F)cc1 | 3.52 |
| CCCCCCCNC(=O)c1ccccc1 | 3.94 |
| Cc1[nH]cnc1CSCCNc1ncc(Cc2ccc3c(c2)OCO3)c(=O)[nH]1 | 2.11 |
| Cc1ccc(NC(=O)c2cccnc2)cc1 | 2.08 |
| OCCCO | -1.04 |
| Cc1c2ccccc2c(C)c2c1ccc1ccccc12 | 5.8 |
| CNC(=O)Oc1ccccc1C(C)(C)C | 2.65 |
| CCOP(=S)(OCC)SCCS(=O)(=O)CC | 1.87 |
| COC(=O)C(=O)OC | -0.17 |
| CCOS(=O)(=O)c1ccc(C)cc1 | 1.81 |
| CC(C)c1ccc([N+](=O)[O-])cc1 | 3.45 |
| NC(=O)c1cccnc1 | -0.37 |
| Clc1ccc(-c2cc(Cl)c(Cl)c(Cl)c2Cl)c(Cl)c1 | 7.44 |
| O=NN(CCCl)C(=O)NCCCl | 1.53 |
| O=C1C=CC(=O)c2ccccc21 | 1.71 |
| O=[N+]([O-])c1cccc2cccnc12 | 1.4 |
